Data on 13 compounds can be found in patent publication US8722930B2, “Protease inhibitors” (Orion Corporation, priority 2009, dated 2014).

pIC50: −log10 of the molar value. Where two headings read alike, the source gives them in different places.

Test [1] addresses T1, thrombin (Homo sapiens, UniProt P00734).
T1 construct: uPA, Factor Xa, thrombin, plasmin and trypsin (Sigma, USA); purchased Sigma, USA
As to the kind of experiment: Thrombin enzymatic assay (selectivity screening). In kind it is biochemical. The conditions noted are these: for Thrombin Inhibition (%): % Inhibition at 5 μM. An excerpt:
(§1) Purified recombinant matriptase was used in a fluorescence-based screening assay using Gln-Ala-Arg peptide as a substrate. In this assay the cleavage of AMC from Boc-Gln-Ala-Arg-7-amido-4 methylcoumarin hydrochloride (Boc-Gln-Ala-Arg-AMC) (Sigma, USA) was monitored by measuring the increase in fluorescence intensity of AMC released upon proteolytic cleavage at 480 nm (kex=360 nm). Similarly, enzymatic assays in fluorimetric or colorimetric format for uPA, Factor Xa, thrombin, plasmin and trypsin (Sigma, USA) were established using substrates pyroGlu-Gly-Arg-pNA.HCl, Boc-Gln-Ala-Arg-AMC, CH3OCO-D-CHA-Gly-Arg-PNA.AcoH, Pyro Glu-Phe-Lys—pNA.HCl and Boc-Gln-Ala-Arg-AMC, respectively.

Test [2] has as its target T2, uPA (Homo sapiens, UniProt P00749).
T2 construct: purchased Sigma, USA
The test can be described thus: uPA enzymatic assay (selectivity screening). In kind it is biochemical. The conditions noted are these: for uPA Inhibition (%): % Inhibition at 5 μM.
From the text: as §1

Test [3] relates to DU145 cells. The test can be described thus: Migration assay in transwell chambers. The conditions noted are these: for inhibition at 10 µM: Homo sapiens, DU-145, 24 hours. In kind it is cell-based. As for the experimental part:
Migration assays were performed to determine the effect of matriptase inhibitors on cell motility. Cells were seeded with 10 μM test compound into transwell chambers and allowed to migrate for 24 hours using a combination of 10% FBS and 5 μg/ml fibronectin as chemoattractant.

Test [4] has as its target T3, Purified recombinant matriptase (Homo sapiens, UniProt Q9Y5Y6).
T3 sequence (Q9Y5Y6 1-855): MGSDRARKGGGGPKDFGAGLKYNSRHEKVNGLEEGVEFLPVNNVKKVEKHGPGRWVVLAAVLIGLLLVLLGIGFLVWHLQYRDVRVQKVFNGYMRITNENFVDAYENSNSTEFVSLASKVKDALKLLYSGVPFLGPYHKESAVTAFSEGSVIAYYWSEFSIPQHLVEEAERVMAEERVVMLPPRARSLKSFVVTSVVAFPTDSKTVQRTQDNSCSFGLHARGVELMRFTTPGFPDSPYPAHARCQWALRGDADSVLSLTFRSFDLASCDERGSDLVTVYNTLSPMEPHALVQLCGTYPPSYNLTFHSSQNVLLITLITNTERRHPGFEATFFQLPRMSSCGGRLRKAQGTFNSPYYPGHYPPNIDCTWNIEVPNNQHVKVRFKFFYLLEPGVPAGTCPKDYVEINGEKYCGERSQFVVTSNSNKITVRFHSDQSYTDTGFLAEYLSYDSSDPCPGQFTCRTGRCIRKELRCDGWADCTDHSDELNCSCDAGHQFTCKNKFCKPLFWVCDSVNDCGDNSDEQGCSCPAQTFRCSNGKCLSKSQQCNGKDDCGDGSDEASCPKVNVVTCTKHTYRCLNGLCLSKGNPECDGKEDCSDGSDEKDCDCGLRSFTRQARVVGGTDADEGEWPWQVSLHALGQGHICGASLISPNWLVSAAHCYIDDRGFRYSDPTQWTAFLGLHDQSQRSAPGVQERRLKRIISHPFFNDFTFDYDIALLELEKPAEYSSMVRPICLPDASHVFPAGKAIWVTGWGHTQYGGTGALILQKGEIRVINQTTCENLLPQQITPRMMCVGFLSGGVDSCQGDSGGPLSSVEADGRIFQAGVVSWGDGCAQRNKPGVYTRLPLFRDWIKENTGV
The test can be described thus: Matriptase fluorescence-based enzymatic assay (Boc-Gln-Ala-Arg-AMC cleavage). Format: biochemical.
From the text: as §1

The target of test [5] is T4, plasmin (Homo sapiens, UniProt P00747).
T4 construct: uPA, Factor Xa, thrombin, plasmin and trypsin (Sigma, USA); purchased Sigma, USA
The test can be described thus: Plasmin enzymatic assay (selectivity screening). Format: biochemical. The conditions noted are these: for Plasmin Inhibition (%): % Inhibition at 5 μM.
From the text: as §1

Test [6] relates to DU145 cells. The test can be described thus: Cytotoxicity, Calcein AM assay, DU145. The conditions noted are these: four days of incubation; for viability at 10 µM: Homo sapiens, DU-145, 96 h, read-out: Cell survival at 10 μM (%). Format: cell-based. As for the experimental part:
Cytotoxicity of the compounds was tested in cell lines or primary cells using Calcein AM assay. This assay measures cell viability by quantitation of cleaved fluorescent product of a cell permeable substrate that is retained in the cytoplasm of cells with uncompromised cytoplasmic membrane integrity. The cells were seeded into 96-well plate and allowed to adhere for a day followed by addition of compound at several different concentrations. After four days of incubation with the compound, media was removed from the cells followed by addition of PBS and addition of Calcein AM reagent at 1 μM final concentration. The cells were then allowed to incubate at 37° C. for half an hour followed by reading on the fluorimeter. Percent viability was calculated based on fluorescence value obtained at 485/520 nm with cut off at 495 nm.

In test [7] the test system is DU145 cells. The test can be described thus: Cell invasion assay (matrigel transwell). The conditions noted are these: for inhibition at 10 µM: Homo sapiens, DU-145, 48 hours. In kind it is cell-based. As for the experimental part:
Cell invasion assays were done for quantitating the degree to which invasive cells penetrate a barrier essentially as in migration assay but with the use of matrigel consisting of basement membrane components in the transwell inserts and incubating for 48 hours. The barrier used was matrigel. This was followed by fixing and staining of the transwell insert with 0.5% crystal violet in 25% methanol in order to visualize cells migrated.

Test [8] addresses T5, Factor Xa (Homo sapiens, UniProt P00742).
T5 construct: uPA, Factor Xa, thrombin, plasmin and trypsin (Sigma, USA); purchased Sigma, USA
The test can be described thus: Factor Xa enzymatic assay (selectivity screening). Format: biochemical. The conditions noted are these: for Factor Xa Inhibition (%): % Inhibition at 5 μM.
From the text: as §1

In test [9] the test system is trypsin. The test can be described thus: Trypsin enzymatic assay (selectivity screening). In kind it is biochemical. The conditions noted are these: % Inhibition at 5 μM.
From the text: as §1

Where [10] appears, read: Table 1, read-out: Matriptase Inhibition IC50.
[11] abbreviates: Table 2, read-out: Matriptase IC50.

T4 sequence (P00747 581-810 limits assumed, species assumed): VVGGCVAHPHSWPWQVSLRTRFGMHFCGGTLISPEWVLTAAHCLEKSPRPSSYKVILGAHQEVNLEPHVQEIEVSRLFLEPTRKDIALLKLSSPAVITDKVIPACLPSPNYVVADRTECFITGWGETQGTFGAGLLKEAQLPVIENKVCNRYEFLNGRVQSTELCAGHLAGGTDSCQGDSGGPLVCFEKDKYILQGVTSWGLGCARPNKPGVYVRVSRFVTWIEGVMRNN
T4 sequence (P00747 97-580 partner limits assumed, species assumed): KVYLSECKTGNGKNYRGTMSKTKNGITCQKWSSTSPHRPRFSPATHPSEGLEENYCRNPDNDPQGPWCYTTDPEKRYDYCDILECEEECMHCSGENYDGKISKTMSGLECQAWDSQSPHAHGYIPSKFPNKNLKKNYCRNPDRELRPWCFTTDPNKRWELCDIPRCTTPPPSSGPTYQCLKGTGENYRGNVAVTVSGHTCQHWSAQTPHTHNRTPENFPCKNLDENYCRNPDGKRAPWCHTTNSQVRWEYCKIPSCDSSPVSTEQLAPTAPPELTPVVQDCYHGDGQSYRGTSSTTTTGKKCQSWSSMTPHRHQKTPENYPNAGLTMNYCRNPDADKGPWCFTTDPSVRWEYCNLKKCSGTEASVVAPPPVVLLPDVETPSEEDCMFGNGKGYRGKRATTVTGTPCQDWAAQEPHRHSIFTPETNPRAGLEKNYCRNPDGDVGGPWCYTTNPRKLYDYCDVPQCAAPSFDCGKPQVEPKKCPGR
T5 sequence (P00742 235-488 limits assumed): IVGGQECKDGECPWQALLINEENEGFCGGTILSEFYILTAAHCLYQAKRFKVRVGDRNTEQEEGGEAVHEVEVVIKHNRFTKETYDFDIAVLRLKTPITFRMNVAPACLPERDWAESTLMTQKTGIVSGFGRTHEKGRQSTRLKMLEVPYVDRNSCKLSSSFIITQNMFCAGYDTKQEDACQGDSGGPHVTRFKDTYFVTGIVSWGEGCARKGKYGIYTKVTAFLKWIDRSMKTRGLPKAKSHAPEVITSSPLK
T5 sequence (P00742 41-179 partner limits assumed): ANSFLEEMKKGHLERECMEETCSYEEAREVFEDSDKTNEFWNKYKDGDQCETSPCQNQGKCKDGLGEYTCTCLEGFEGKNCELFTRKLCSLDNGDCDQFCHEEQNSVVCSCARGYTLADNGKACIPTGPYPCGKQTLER

In the case of “1-[3,5-Bis-(4-carbanimidoyl-phenoxy)-benzoyl]-nonahydro-quinoline [Example 35]”, the “Thrombin Inhibition (%)” value in [1] is 67%. Also, the “uPA Inhibition (%)” value in [2] is recorded as 10%. Moreover, the “Inhibition of migration at 10 μM (%)” value in test [3] (24 hours) was 18%. Also, the pIC50 (commonly −log10 of the IC50, conventionally taken in molar units) was 6.50 in test [4] (setting [10]) and 6.51 in [4] (setting [11]). Besides, in test [5], the “Plasmin Inhibition (%)” value is given as 69%. Moreover, in test [6], the “Cell survival at 10 μM (%)” value is reported as 78%. In addition, the “Inhibition of invasion at 10 μM (%)” value in test [7] (48 hours) is recorded as 75%. Further, in [8], the “Factor Xa Inhibition (%)” value was found to be 69%.
As to “2-[3,5-Bis-(4-carbanimidoyl-phenoxy)-benzoyl]-nonahydro-isoquinoline [Example 37]”, in [1], the “Thrombin Inhibition (%)” value worked out at 74%. In [2], the “uPA Inhibition (%)” value is 13%. In test [4] (setting [10]), the pIC50 was 6.32. The “Trypsin Inhibition (%)” value in test [9] is 84%. Further, the “Plasmin Inhibition (%)” value in [5] turned out to be 65%. In addition, in [8], the “Factor Xa Inhibition (%)” value stood at 67%.
As to `N=C(N)c1ccc(Oc2cc(Oc3ccc(C(=N)N)cc3)cc(C(=O)N3CCN(CCN)CC3)c2)cc1` [Example 31, 2-{4-[3,5-Bis-(4-carbamimidoyl-phenoxy)-benzoyl]-piperazin-1-yl}-ethylamine], the inhibition – broadly, the drop in the measured response relative to a control, in per cent – at 5 µM in [1] was found to be 61%; in test [2], 5%; in [5] it was 40%; in [8], 94%. Moreover, the pIC50 in test [4] (setting [10]) was 7.06.
The corresponding values for `N=C(N)c1ccc(Oc2cc(OCc3cccc(C(=N)N)c3)cc(C(=O)NC3CCC(N)CC3)c2)cc1` (stereo not shown) [Example 42, N-(4-Aminocyclohexyl)-3-(3-carbamimidoylbenzyloxy)-5-(4-carbamimidoylphenoxy)benzamide] are 36%, 11%, 30%, 93% and 8.00.
The corresponding values for `N=C(N)c1ccc(COc2cc(Oc3ccc(C(=N)N)cc3)cc(C(=O)NC3CCC(N)CC3)c2)cc1` (stereo not shown) [Example 43, N-(4-Aminocyclohexyl)-3-(4-carbamimidoylbenzyloxy)-5-(4-carbamimidoylphenoxy)benzamide] are 45%, 7%, 33%, 76% and 7.80.
The like results for `N=C(N)c1ccc(Oc2cc(OCc3ccc(CN)cc3)cc(C(=O)NC3CCC(N)CC3)c2)cc1` (stereo not shown) [Example 45, N-(4-Aminocyclohexyl)-3-(4-aminomethylbenzyloxy)-5-(4-carbamimidoylphenoxy)benzamide] were, in that order, -12%, 6%, 21%, 47% and 7.32.
For `N=C(N)c1ccc(Oc2cc(OCc3cccc(C(=N)N)c3)cc(C(=O)N3CCC(CCN)CC3)c2)cc1` [Example 57, 2-{1-[3-(3-Carbamimidoyl-benzyloxy)-5-(4-carbamimidoyl-phenoxy)-benzoyl]-piperidin-4-yl}-ethylamine], the inhibition at 5 µM turned out to be 57% in test [1], 10% in test [2], 50% in [5] and 94% in test [8]. Besides, the pIC50 in [4] (setting [10]) was 7.54. For the same compound, in test [9], the “Trypsin Inhibition (%)” value is on record as 74%.
Take `N=C(N)CCCCOc1cc(Oc2ccc(C(=N)N)cc2)cc(C(=O)NC2CCC(N)CC2)c1` (stereo not shown) [Example 65, N-(4-Aminocyclohexyl)-3-(4-carbamimidoylbutoxy)-5-(4-carbamimidoyl-phenoxy)-benzamide]: the inhibition at 5 µM in [1] amounted to 27%; in [2] it was 4%; in test [5], 5%; in test [8] it was 63%. Moreover, the values for the inhibition at 10 µM in test [3] and in test [7] were 7% and 88%, respectively. In addition, the pIC50 in test [4] (setting [10]) is 7.77; in [4] (setting [11]) it was 7.80. The viability at 10 µM in [6] was 96%.
`N=C(N)CCCCCOc1cc(Oc2ccc(C(=N)N)cc2)cc(C(=O)NC2CCC(N)CC2)c1` (stereo not shown) [Example 66, N-(4-Aminocyclohexyl)-3-(5-carbamimidoylpentyloxy)-5-(4-carbamimidoyl-phenoxy)-benzamide]: the inhibition at 5 µM came out at 21% in test [1], 3% in test [2], 5% in test [5] and 43% in test [8]. In addition, the inhibition at 10 µM stood at 88% in test [3] and 95% in test [7]. The pIC50 in test [4] (setting [10]) is 7.79; in test [4] (setting [11]), 7.80. Also, the viability at 10 µM in [6] was 87%.
`N=C(N)c1ccc(Oc2cc(Oc3ccc(C(=N)N)cc3Cl)cc(C(=O)NC3CCC(N)CC3)c2)cc1` (stereo not shown) [Example 69, N-(4-Aminocyclohexyl)-3-(4-carbamimidoyl-2-chlorophenoxy)-5-(4-carbamimidoylphenoxy)benzamide]: the inhibition at 5 µM in test [1] came out at 26%; in test [2], 9%; in [5] it was 22%; in test [8], 81%. Moreover, the pIC50 in [4] (setting [10]) was 7.72.
The corresponding values for `N=C(N)c1cccc(COc2cc(OCc3cccc(C(=N)N)c3)cc(C(=O)NC3CCC(N)CC3)c2)c1` (stereo not shown) [Example 77, N-(4-Aminocyclohexyl)-3,5-bis-(3-carbamimidoyl Benzyloxy)benzamide] are 76%, 11%, 22%, 96% and 8.30.
Regarding `N=C(N)c1ccc(Oc2cc(Oc3ccc(CN)cc3)cc(C(=O)NC3CCC(N)CC3)c2)cc1` (stereo not shown) [Example 84, N-(4-Aminocyclohexyl)-3-(4-aminomethylphenoxy)-5-(4-carbamimidoylphenoxy)benzamide], the inhibition at 5 µM in test [1] was found to be 36%; in [2] it was 5%; in [5] it was 10%; in [8] it was 5%. Further, the inhibition at 10 µM is 80% in [3] and 92% in [7]. For the same compound, the negative logarithm of the IC50 (pIC50) in test [4] (setting [10]) and in test [4] (setting [11]) was 7.20 in each case. In addition, the viability at 10 µM in [6] was 100%.
On to `N=C(N)c1cc(F)c(Oc2cc(Oc3ccc(CN)cc3)cc(C(=O)NC3CCC(N)CC3)c2)c(F)c1` (stereo not shown) [Example 87, N-(4-Amino-cyclohexyl)-3-(4-aminomethyl-phenoxy)-5-(4-carbamimidoyl-2,6-difluoro-phenoxy)-benzamide], for which the inhibition at 10 µM in test [3] was determined as 47%; in test [7], 88%. The pIC50 in test [4] (setting [11]) is 6.80. Besides, the viability at 10 µM in [6] was 113%.
